Assay results reported in patent US20250295627A1 (Leibniz-Institut Fuer Neurobiologie, priority 2022, published 2025).

How the values were obtained:
TBA2.1 and 5×FAD mice [1] = assay: Synaptic density in stratum lacunosum moleculare of CA1 after oral Nitarsone; assay type: in vivo, mouse
Procedure: Animals were anesthetized with ketamine/xylazine (Medistar) and transcardially perfused with 0.9% saline followed by 4% PFA. The brains were post-fixed in 4% PFA in PBS overnight, followed by immersion in 0.5 M sucrose for 24 h and then 1M sucrose for another 1 to 2 days or until the brains were sunken down. The brains were snap-frozen and cut into 35 μm thick coronal cryosections (Leica CM3050S, Leica-Microsystems). The sections were blocked in a buffer (0.3% TX-100, 10% NGS in PBS) for 30 min at RT, and incubated with primary antibodies diluted in the blocking solution, overnight at 4° C. Secondary antibodies were applied for 2 h at RT. Sections were counterstained with DAPI and mounted in Mowiol 4-88 (Merck Chemicals). For the detection of Aβ, the heat-based antigen retrieval method was used. For anti-Aβ staining, following permeabilization, brain sections were immersed into […] sodium citrate solution (Fluka, pH=9) for 30 min at 80° C. Imaging of nuclear pCREB/CREB immunoreactivities in cryosections was performed using a Leica TCS SP5 system (Leica-Microsystems). Images were acquired sequentially with a HCX ApoL20×/1.0 water objective, optical zoom 4. Sections were imaged with constant laser/detector settings along the z-axis with 400 nm step in a 512×512 pixel format.
. For TBA2.1 mice (both sexes), treatment started at the age of 4 weeks. […]

TBA2.1 mice = assay: Open-field test; assay type: in vivo, mouse
Description: (§1) . For TBA2.1 mice (both sexes), treatment started at the age of 4 weeks. The animals were group housed and force fed for 4 weeks. […] Treatment in 5×FAD male mice started at the age of 12 weeks. Here, animals were single housed right away and given a choice between voluntary and forced feeding. […] During the course of the 7th week of treatment, animals were either subjected to perfusion to obtain their brains for subsequent immunohistochemistry or they were culled to obtained native brains for electrophysiological recordings.
Locomotor activity was assessed using the Open-field test, performed in a square arena (45×45×45 cm) made of black Plexiglas and dimly illuminated. The animals were placed in the center of the arena, and were left to explore it for 10 min. The sessions were video recorded, and the distance travelled in the maze as well as the speed was tracked with ANY-maze Software 7.0 (Stoelting Co). Data were analyzed in 1 min bins.

TBA2.1 and 5×FAD mice [2] = assay: Novel object recognition and location; assay type: in vivo, mouse
Description: as §1
The hippocampus-dependent memory was assessed using a novel object location and novel object recognition tasks. Assays were performed as described elsewhere (Andres-Alonso et al., 2019). Briefly, training and testing were done in an open field square arena made out of plastic (50 cm×50 cm). The mice were habituated in the empty arena for 20 min. Subsequently, 2 identical objects were introduced to the maze and the animals could explore the objects in 2 training session, 20 min each. 2 h afterwards, in the memory test phase, one object was replaced with an unfamiliar, unknown object (novel object recognition). Afterwards, the location of one object was changed ([…]). During all sessions, the amount of time the animals explored the objects was recorded, and a discrimination index was calculated using the formula DI=[(Tnew−Tfamiliar)/(Tnew+Tfamiliar)]*100. The arena was cleaned with 5% ethanol before and after each animal was tested.

hippocampal neurons = assay: Aβ-induced synapse loss (synaptophysin/Shank3 puncta) in dissociated hippocampal neurons; assay type: cell-based, rat; conditions: 5 μM Nitarsone, 48 h, 500 nM Aβ1-42
Procedure: (§2) Hippocampal and cortical cultures were prepared from Wistar rat embryos (E18) of mixed sex as described previously (Spilker et al., 2016). Briefly, dissected were digested for 15 min with trypsin at 37° C. Neurons were plated on plastic 12-well dishes (Greiner) on glass coverslips coated with poly-L-lysine (Sigma-Aldrich) at a density of 60 000 cells/well in DMEM medium (Gibco, Thermo Fisher Scientific) supplemented with 10% FCS, 1× penicillin/streptomycin, and 2 mM glutamine. After 1 h incubation (at the 37° C., 5% CO2, 95% humidity) cells were kept in BrainPhys medium supplemented with 1% SM1 (Stemmcell Technologies), 0.5 mM Glutamine (Gibco) at 37° C., 5% CO2 and 95% humidity. […]
(§3) For quantitation of nuclear staining intensity (pCREB or CREB) somatic regions were sequentially scanned using the 63× objective (Leica) in both: Leica TCS SP8-STED and Leica TCS SP5 systems. […] Unprocessed images were analysed using Fiji/ImageJ software (Schindelin et al., 2012). For visualization of the quantified channel a fire look-up table (LUT) was used. Synaptic density was quantified in secondary dendrites using Fiji/ImageJ (Schindelin et al., 2012). […] Intensity of the GluA1 channel was measured in ROIs defined by a Shank3 mask as a readout for surface AMPAR expression.

pCREB [3] = assay: pCREB in primary cortical cultures overexpressing poly(GA) aggregates (ALS model); assay type: cell-based, rodent; conditions: 5 µM nitarsone, 48 hours
pCREB [4] = assay: Aβ-induced CREB shutoff (nuclear pCREB) in hippocampal primary neurons; assay type: cell-based, rat
Procedure: as §2, §3

Compound: O=[N+]([O-])c1ccc([As](=O)(O)O)cc1 [Nitarsone, (4-nitrophenyl) arsonic acid]
- synapse loss in the stratum lacunosum moleculare (TBA2.1 and 5×FAD mice [1]; 5×FAD mice): clearly reduced synapse loss
- synapse loss in the stratum lacunosum moleculare (TBA2.1 and 5×FAD mice [1]; TBA2.1 mice): clearly reduced synapse loss
- preference index (TBA2.1 mice; FIG. 11 panel L, TBA2.1 mice): does not influence preference index
- distance travelled during open field arena exploration (TBA2.1 mice; FIG. 11 panel M, TBA2.1 mice): slightly normalizes increased distance travelled
- preference index (TBA2.1 mice; FIG. 11 panel N, printed TBA2.1 mice): does not influence preference index
- distance travelled during open field arena exploration (TBA2.1 mice; FIG. 11 panel O, printed TBA2.1 mice): slightly normalizes increased distance travelled
- memory in novel location recognition task (TBA2.1 and 5×FAD mice [2]; 5×FAD mice): rescued memory
- memory in novel object recognition task (TBA2.1 and 5×FAD mice [2]; 5×FAD mice): rescued memory
- memory in novel location recognition task (TBA2.1 and 5×FAD mice [2]; TBA2.1 mice): rescued memory
- memory in novel object recognition task (TBA2.1 and 5×FAD mice [2]; TBA2.1 mice): rescued memory
- Aβ-induced synapse loss (hippocampal neurons): completely prevented
- pCREB nuclear immunoreactivity (pCREB [3]; control cells (poly (GA)-negative)): do not display any change
- poly (GA)-induced decrease in pCREB nuclear immunoreactivity (pCREB [3]; poly-(GA) 175-EGFP-transduced cells): completely rescued
- CREB shutoff induced by Aβ oligomers for 48 h (pCREB [4]; 5 µM co-application, 500 nM Aβ oligomers, 48 h): rescued CREB shutoff
- acute Aβ-induced CREB shutoff (pCREB [4]; 10 μM bath application, 30 min prior or 2 h after 500 nM Aβ for 2 h): prevented acute Aβ-induced CREB shutoff
